Assay results as given in ChEMBL document CHEMBL5321208, “The effect of side chain variations on quinazoline-pyrimidine G-quadruplex DNA ligands” (Eur J Med Chem, 2023).
Activity calls are given as the source filed them. The calls are words filed in the database; no cut-off is given here.

How the values were obtained:
Quadruplex DNA [1] = test: Binding affinity to FAM/TAMRA-labelled antiparallel Bom17 G4 DNA (unknown origin) assessed as thermal stabilization at 1 to 8 uM measured at 10 to 95 degreeC by FRET analysis; format: nucleic-acid assay; conditions: dose 1-8 µM
Quadruplex DNA [2] = test: Binding affinity to FAM/TAMRA-labelled c-KIT2 G4 DNA (unknown origin) assessed as thermal stabilization at 1 to 8 uM measured at 10 to 95 degreeC by FRET analysis; format: nucleic-acid assay; conditions: dose 1-8 µM
Quadruplex DNA [3] = test: Binding affinity to FAM/TAMRA-labelled parallel 25ceb G4 DNA (unknown origin) assessed as thermal stabilization at 1 to 8 uM measured at 10 to 95 degreeC by FRET analysis; format: nucleic-acid assay; conditions: dose 1-8 µM
dsDNA = test: Binding affinity to double stranded DNA (unknown origin) assessed as thermal stabilization at 1 to 8 uM measured at 10 to 95 degreeC by FRET analysis; format: nucleic-acid assay; conditions: dose 1-8 µM
Quadruplex DNA [4] = test: Binding affinity to FAM/TAMRA-labelled 21g G4 DNA (unknown origin) assessed as thermal stabilization at 1 to 8 uM measured at 10 to 95 degreeC by FRET analysis; format: nucleic-acid assay; conditions: dose 1-8 µM
Quadruplex DNA [5] = test: Binding affinity to FAM/TAMRA-labelled c-MYC Pu22 G4 DNA (unknown origin) assessed as thermal stabilization at 1 to 8 uM measured at 10 to 95 degreeC by FRET analysis; format: nucleic-acid assay; conditions: dose 1-8 µM
Quadruplex DNA [6] = test: Binding affinity to FAM/TAMRA-labelled parallel KRAS G4 DNA (unknown origin) assessed as thermal stabilization by measuring change in melting temperature at 2 uM in the presence of 100 equivalents of double stranded DNA by FRET competition assay; format: nucleic-acid assay
Quadruplex DNA [7] = test: Binding affinity to FAM/TAMRA-labelled parallel KRAS G4 DNA (unknown origin) assessed as thermal stabilization in the presence of 15 equivalents of double stranded DNA by FRET competition assay; format: nucleic-acid assay
[8] = Cytotoxicity against wildtype C57BL/6J mouse cancer activated fibroblast cells assessed as inhibition of cell growth incubated for 5 days by resazurin dye based fluorescence microscopic analysis; format: toxicity
Quadruplex DNA [9] = test: Binding affinity to 5'-Cy5-labelled parallel c-MYC Pu24T G4 DNA (unknown origin) assessed as dissociation constant by MST analysis; format: nucleic-acid assay
[10] = Antitumor activity against KPC mouse pancreatic cancer organoid expressing lentiviral modified GFP co-cultured with WT C57BL/6J mouse pancreatic stellate cells expressing mKate2 assessed as inhibition of cell growth incubated for 5 days by resazurin dye based fluorescence microscopic analysis; format: functional, tissue-based; conditions: 120 h
Quadruplex DNA [11] = test: Binding affinity to parallel c-MYC Pu24T G4 DNA (unknown origin) assessed as thermal stabilization by measuring change in melting temperature at 5 uM measured at 1:1 DNA to ligand ratio by CD spectra analysis; format: nucleic-acid assay
Quadruplex DNA [12] = test: Binding affinity to FAM/TAMRA-labelled c-KIT1 G4 DNA (unknown origin) assessed as thermal stabilization at 1 to 8 uM measured at 10 to 95 degreeC by FRET analysis; format: nucleic-acid assay; conditions: dose 1-8 µM
Quadruplex DNA [13] = test: Binding affinity to FAM/TAMRA-labelled antiparallel TBA G4 DNA (unknown origin) assessed as thermal stabilization at 1 to 8 uM measured at 10 to 95 degreeC by FRET analysis; format: nucleic-acid assay; conditions: dose 1-8 µM
Quadruplex DNA [14] = test: Binding affinity to FAM/TAMRA-labelled parallel c-MYC Pu24T G4 DNA (unknown origin) assessed as thermal stabilization by measuring change in melting temperature at 2 uM in the presence of 100 equivalents of double stranded DNA by FRET competition assay; format: nucleic-acid assay
Quadruplex DNA [15] = test: Binding affinity to FAM/TAMRA-labelled parallel c-MYC Pu24T G4 DNA (unknown origin) assessed as thermal stabilization in the presence of 15 equivalents of double stranded DNA by FRET competition assay; format: nucleic-acid assay
Quadruplex DNA [16] = test: Binding affinity to FAM/TAMRA-labelled parallel c-MYC Pu24T G4 DNA (unknown origin) assessed as thermal stabilization at 1 to 8 uM measured at 10 to 95 degreeC by FRET analysis; format: nucleic-acid assay; conditions: dose 1-8 µM
Quadruplex DNA [17] = test: Binding affinity to parallel c-MYC Pu24T G4 DNA (unknown origin) assessed as change in topology at 5 uM by CD spectra analysis; format: nucleic-acid assay
Quadruplex DNA [18] = test: Binding affinity to FAM/TAMRA-labelled parallel KRAS G4 DNA (unknown origin) assessed as thermal stabilization at highest concentration at 10 to 95 degreeC by FRET analysis; format: nucleic-acid assay
Quadruplex DNA [19] = test: Binding affinity to FAM/TAMRA-labelled parallel KRAS G4 DNA (unknown origin) assessed as thermal stabilization at lowest concentration at 10 to 95 degreeC by FRET analysis; format: nucleic-acid assay
Quadruplex DNA [20] = test: Binding affinity to FAM/TAMRA-labelled parallel KRAS G4 DNA (unknown origin) assessed as thermal stabilization at 1 to 8 uM measured at 10 to 95 degreeC by FRET analysis; format: nucleic-acid assay; conditions: dose 1-8 µM

Activity (dsDNA)	Compound	Activity (Quadruplex DNA [1])	Activity (Quadruplex DNA [2])	Activity (Quadruplex DNA [3])	Activity (Quadruplex DNA [4])	Activity (Quadruplex DNA [5])	ΔTm (Quadruplex DNA [6])	Activity (Quadruplex DNA [7])	IC50 at 5 days [8]	Kd (Quadruplex DNA [9])	IC50 [10]	ΔTm (Quadruplex DNA [11])	Activity (Quadruplex DNA [12])	Activity (Quadruplex DNA [13])	ΔTm (Quadruplex DNA [14])	Activity (Quadruplex DNA [15])	Activity (Quadruplex DNA [16])	Activity (Quadruplex DNA [17])	further results
inactive	Cc1cc(NCCCN2CCCCC2)nc(Nc2nc(C)c3ccc4c(c3n2)CCCC4)n1	inactive	Active	inactive	Active	Active	10 °C	Active		175 nM		5 °C	Active	inactive	7 °C	Active	Active	inactive	
inactive	Cc1cc(NCCc2c[nH]c3ccccc23)nc(Nc2nc(C)c3ccc4c(c3n2)CCC4)n1																		Activity (Quadruplex DNA [18]): Active; Activity (Quadruplex DNA [19]): inactive
inactive	CCN(CC)CCCNc1cc(C)nc(Nc2nc(C)c3ccc4c(c3n2)CCCC4)n1	inactive	Active	inactive	Active	Active	10 °C	Active		230 nM		7 °C	Active	inactive	7 °C	Active	Active	inactive	
inactive	Cc1cc(NCCCN2CCCC2)nc(Nc2nc(C)c3ccc4c(c3n2)CCCC4)n1	inactive	Active	inactive	Active	Active	10 °C	Active		245 nM		8 °C	Active	inactive	7 °C	Active	Active	inactive	
inactive	Cc1cc(NCCc2c[nH]c3ccccc23)nc(Nc2nc(C)c3ccc4c(c3n2)CCCC4)n1																		Activity (Quadruplex DNA [18]): Active; Activity (Quadruplex DNA [19]): inactive
inactive	Cc1cc(NCCCN2CCN(C)CC2)nc(Nc2nc(C)c3ccc4c(c3n2)CCCC4)n1	inactive	Active	inactive	Active	Active	10 °C	Active		280 nM		6 °C	Active	inactive	7 °C	Active	Active	inactive	

The remaining lines, values behind:

Compound	Activity (dsDNA)	Activity (Quadruplex DNA [1])	Activity (Quadruplex DNA [2])	Activity (Quadruplex DNA [3])	Activity (Quadruplex DNA [4])	Activity (Quadruplex DNA [5])	ΔTm (Quadruplex DNA [6])	Activity (Quadruplex DNA [7])	IC50 at 5 days [8]	Kd (Quadruplex DNA [9])	IC50 [10]	ΔTm (Quadruplex DNA [11])	Activity (Quadruplex DNA [12])	Activity (Quadruplex DNA [13])	ΔTm (Quadruplex DNA [14])	Activity (Quadruplex DNA [15])	Activity (Quadruplex DNA [16])	Activity (Quadruplex DNA [17])	further results
Cc1cc(NCCCN2CCCC2)nc(Nc2nc(C)c3ccc4c(c3n2)CCC4)n1	inactive	inactive	Active	inactive	Active	Active	10 °C	Active	2520 nM	275 nM	161 nM	5 °C	Active	inactive	7 °C	Active	Active	inactive	
Cc1cc(NCCCN2CCN(C)CC2)nc(Nc2nc(C)c3ccc4c(c3n2)CCC4)n1	inactive	inactive	Active	inactive	Active	Active	10 °C	Active	264 nM	265 nM	211 nM	5 °C	Active	inactive	7 °C	Active	Active	inactive	
Cc1cc(NCCCN2CCCCC2)nc(Nc2nc(C)c3ccc4c(c3n2)CCC4)n1	inactive	inactive	Active	inactive	Active	Active	10 °C	Active	> 500 nM	285 nM	793 nM	4 °C	Active	inactive	7 °C	Active	Active	inactive	
Cc1cc(NCCN2CCN(C)CC2)nc(Nc2nc(C)c3ccc4c(c3n2)CCC4)n1	inactive								> 500 nM		547 nM						Active		Activity (Quadruplex DNA [20]): Active
CCN(CC)CCCNc1cc(C)nc(Nc2nc(C)c3ccc4c(c3n2)CCC4)n1	inactive	inactive	Active	inactive	Active	Active	10 °C	Active	2820 nM	360 nM	193 nM	5 °C	Active	inactive	7 °C	Active	Active	inactive	
